The target in one experiment is T1, LPA5 (Homo sapiens, UniProt Q9H1C0).
T1 construct: host or cells: Chem-1 cells with promiscuous Gα15
The experiment can be described thus: GPCR Profiler. It counts as cell-based.

The target of the next experiment is T2, PIPSK1A (Homo sapiens, UniProt Q99755).
T2 construct: purchased DiscoveRx (Fremont, CA)
The experiment can be described thus: KinomeScan. It counts as binding. The settings on record: read-out: % Control.

The target in a further experiment is T3, TESK1 (Homo sapiens, UniProt Q15569).
T3 construct: purchased DiscoveRx (Fremont, CA)
The experiment can be described thus: KinomeScan. It counts as binding. The settings on record: read-out: % Control.

For the next experiment, the target named is T4, CDK4-cyclinD3 (Homo sapiens, UniProt P11802).
T4 construct: purchased DiscoveRx (KinomeScan service)
Briefly: KinomeScan. Particulars: read-out: % Control. Format: binding.

The target in a further experiment is T5, M5 (Homo sapiens, UniProt P08912).
T5 construct: host or cells: Chem-1 cells with promiscuous Gα15
Briefly: GPCR Profiler. It counts as cell-based.

The next experiment deals with T6, TGFBR2 (Homo sapiens, UniProt P37173).
T6 construct: purchased DiscoveRx (Fremont, CA)
Briefly: KinomeScan. Format: binding. Particulars: read-out: % Control.

In another experiment the target is T7, NLK (Homo sapiens, UniProt Q9UBE8).
T7 construct: purchased DiscoveRx
Briefly: KinomeScan. Format: binding. The settings on record: read-out: % Control.

In another experiment the target is T8, TRKA (Homo sapiens, UniProt P04629).
T8 construct: purchased DiscoveRx (Fremont, CA)
Briefly: KinomeScan. Format: binding. The settings on record: read-out: % Control.

The target in another experiment is T9, ERBB3 (Homo sapiens, UniProt P21860).
T9 construct: purchased DiscoveRx (Fremont, CA)
Briefly: KinomeScan. The settings on record: read-out: % Control. It counts as binding.

The target in another experiment is T10, PHKG1 (Homo sapiens, UniProt Q16816).
T10 construct: purchased DiscoveRx (Fremont, CA)
The experiment can be described thus: KinomeScan. Format: binding. Particulars: read-out: % Control.

For the next experiment, the target named is T11, FYN (Homo sapiens, UniProt P06241).
T11 construct: purchased DiscoveRx (Fremont, CA)
Briefly: KinomeScan. Format: binding. Particulars: read-out: % Control.

Another experiment concerns the target T12, MAP4K3 (Homo sapiens, UniProt Q8IVH8).
T12 construct: purchased DiscoveRx (Fremont, CA)
The experiment can be described thus: KinomeScan. Format: binding. The settings on record: read-out: % Control.

For a further experiment, the target named is T13, PRKCI (Homo sapiens, UniProt P41743).
T13 construct: purchased DiscoveRx (Fremont, CA)
Briefly: KinomeScan. The settings on record: read-out: % Control. Format: binding.

The target of a further experiment is T14, ETB (Homo sapiens, UniProt P24530).
T14 construct: host or cells: Chem-1 cells expressing Gα15
The experiment can be described thus: GPCR Profiler. It counts as cell-based.

A further experiment has as its target T15, FGFR2 (Homo sapiens, UniProt P21802).
T15 construct: purchased DiscoveRx (Fremont, CA)
Briefly: KinomeScan. It counts as binding. The settings on record: read-out: % Control.

For the next experiment, the target named is T16, DP (Homo sapiens, UniProt Q13258).
T16 construct: host or cells: Chem-1 cells expressing Gα15
Briefly: GPCR Profiler. Format: cell-based.

The next experiment deals with T17, V1A (Homo sapiens, UniProt P37288).
T17 construct: host or cells: Chem-1 cells with Gα15
The experiment can be described thus: GPCR Profiler. Format: cell-based.

The next experiment concerns the target CDK9 (Homo sapiens, UniProt P50750). The experiment can be described thus: KinomeScan. Format: binding. Particulars: read-out: % Control.
The next experiment deals with T18, GAK (Homo sapiens, UniProt O14976).
T18 construct: purchased DiscoveRx (Fremont, CA)
The experiment can be described thus: KinomeScan. It counts as binding. The settings on record: read-out: % Control.

In another experiment the target is T19, ROS1 (Homo sapiens, UniProt P08922).
T19 construct: purchased DiscoveRx (Fremont, CA)
The experiment can be described thus: KinomeScan. It counts as binding. Particulars: read-out: % Control.

For the next experiment, the target named is T20, LTK (Homo sapiens, UniProt P29376).
T20 construct: purchased DiscoveRx
The experiment can be described thus: KinomeScan. It counts as binding. The settings on record: read-out: % Control.

Another experiment has as its target T21, GIP (Homo sapiens, UniProt P48546).
T21 construct: host or cells: Chem-1 cells expressing Gα15
The experiment can be described thus: GPCR Profiler. Format: cell-based.

In another experiment the test system is RWGT2. Briefly: Cell Titer-Glo viability, Lung cancer, squamous cell. It counts as cell-based. The procedure:
(§1) OGM2 kills wide variety of cancer cell types. Cell sensitivity can be classified in to Very Sensitive (LC50<2 μM), Sensitive (LC50=2 to 10 μM), Mildly Sensitive (LC50>10 μM), and Refractory (no killing at 10 μM). The listed established cell were incubated with OGM2 at 2 μM or 10 μM for 72 hours under standard cell culture conditions, and relative cell number was assessed using Cell Titer-Glo Luminescent Cell Viability Assay (Promega™) following the manufacturer's instructions. Luminescence was determined using a Cytation 5 reader and Gen5 software package (BioTek™).
(§2) Cancer cells, which are very sensitive to killing by OGM2 (LCs <2 μM), with reported mRNA expression of GPR68 and the related proton sensing receptor GPR4. LC50's (concentrations causing 50% lethality) were determined using CellTiter-Glo (Promega™, G7570). Cells were plated in 12-well plates (CELLTREAT Scientific Products, 229112) in 1 ml of DMEM with high glucose, GlutaMAX, HEPES, or RPMI 1640 with Penicillin-Streptomycin (ThermoFisher™, 10564029, 11875119 and 15140122) and 10% FBS. Cells were incubated overnight at 37° C. in 5% CO2. Then 1 mL of fresh media was added with DMSO, OGM, or positive control (Erastin; APExBIO Technology, LLC, B1524) and cells incubated for 3 days. On the third day, all media was removed, cells were rinsed with 1×PBS, PBS was removed, and 200 μL of 1× Passive Lysis Buffer (Promega™, E1941) was added to each well. […]. Subsequently, 20 μL of lysate was added to 100 μL CellTiter-Glo™ reagent on a LUMITRAC 200 plate (Greiner™ bio-one, 82050-726). Plates were briefly spun down and read on a GloMax-Multi Detection System (Promega™).
(§3) The cells listed in the tables above were incubated with OGM2 at 2 μM or 10 μM for 72 hours under standard cell culture conditions, and relative cell number was assessed using Cell Titer-Glo Luminescent Cell Viability Assay (Promega™) following the manufacturer's instructions. Luminescence was determined using a Cytation 5 reader and Gen5 software package (BioTek™). RNA expression of GPR68 and GPR4 in the corresponding cancer cell lines are listed, according to the publicly available The Human Protein Atlas version 22.0 and Ensembl version 103.38 (see proteinatlas.org). The consensus normalized expression value (“nTPM”=normalize transcript per million) was calculated as the maximum nTPM value for each gene in the two data sources.

The next experiment concerns T-47D. The experiment can be described thus: Cell Titer-Glo viability, Breast cancer. It counts as cell-based. The procedure:
as §1, §2, §3
In general terms: Cellular ATP, detected with luciferase, serves as a proxy for viable cell number.

T17 sequence (P37288 whole entry): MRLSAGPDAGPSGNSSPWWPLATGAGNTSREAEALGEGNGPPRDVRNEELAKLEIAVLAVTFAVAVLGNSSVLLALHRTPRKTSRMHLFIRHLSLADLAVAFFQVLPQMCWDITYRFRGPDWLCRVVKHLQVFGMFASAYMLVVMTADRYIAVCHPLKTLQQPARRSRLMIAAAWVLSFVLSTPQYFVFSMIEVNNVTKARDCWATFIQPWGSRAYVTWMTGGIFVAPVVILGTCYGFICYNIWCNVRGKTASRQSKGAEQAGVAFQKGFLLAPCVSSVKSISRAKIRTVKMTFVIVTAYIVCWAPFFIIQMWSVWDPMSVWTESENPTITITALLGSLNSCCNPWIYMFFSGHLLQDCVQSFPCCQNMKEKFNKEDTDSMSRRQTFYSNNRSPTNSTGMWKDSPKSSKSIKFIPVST
T16 sequence (Q13258 whole entry): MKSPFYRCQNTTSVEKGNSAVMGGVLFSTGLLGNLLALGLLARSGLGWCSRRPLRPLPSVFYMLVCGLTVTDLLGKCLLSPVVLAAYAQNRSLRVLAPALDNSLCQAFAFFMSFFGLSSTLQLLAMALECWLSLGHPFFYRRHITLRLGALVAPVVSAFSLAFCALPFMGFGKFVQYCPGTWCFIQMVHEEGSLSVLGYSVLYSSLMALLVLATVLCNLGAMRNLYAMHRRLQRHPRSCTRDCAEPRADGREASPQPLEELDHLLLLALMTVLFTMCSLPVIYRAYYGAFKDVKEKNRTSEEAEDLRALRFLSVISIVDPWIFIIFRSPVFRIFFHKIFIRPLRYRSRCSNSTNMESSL
T1 sequence (Q9H1C0 whole entry, species assumed): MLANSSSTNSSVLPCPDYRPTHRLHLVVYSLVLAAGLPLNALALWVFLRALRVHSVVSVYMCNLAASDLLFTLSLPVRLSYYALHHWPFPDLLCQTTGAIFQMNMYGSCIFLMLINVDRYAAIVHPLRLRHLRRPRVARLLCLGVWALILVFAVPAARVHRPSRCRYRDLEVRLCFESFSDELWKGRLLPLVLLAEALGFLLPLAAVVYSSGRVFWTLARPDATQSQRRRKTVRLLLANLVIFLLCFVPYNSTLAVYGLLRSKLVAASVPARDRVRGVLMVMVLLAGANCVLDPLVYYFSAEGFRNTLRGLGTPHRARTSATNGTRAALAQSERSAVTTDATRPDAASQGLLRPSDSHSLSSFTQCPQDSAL
T14 sequence (P24530 27-442): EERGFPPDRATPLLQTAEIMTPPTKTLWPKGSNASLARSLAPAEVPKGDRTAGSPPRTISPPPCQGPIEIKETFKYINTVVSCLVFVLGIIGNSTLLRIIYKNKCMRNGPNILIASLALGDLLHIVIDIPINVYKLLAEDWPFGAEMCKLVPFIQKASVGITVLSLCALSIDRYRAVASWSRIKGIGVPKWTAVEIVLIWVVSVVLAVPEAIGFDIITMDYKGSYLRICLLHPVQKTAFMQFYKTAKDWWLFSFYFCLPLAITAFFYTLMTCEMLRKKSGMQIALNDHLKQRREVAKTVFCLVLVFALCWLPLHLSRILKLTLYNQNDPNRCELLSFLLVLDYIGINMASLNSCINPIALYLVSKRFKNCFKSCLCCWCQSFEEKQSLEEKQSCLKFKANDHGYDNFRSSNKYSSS
T21 sequence (P48546 22-466): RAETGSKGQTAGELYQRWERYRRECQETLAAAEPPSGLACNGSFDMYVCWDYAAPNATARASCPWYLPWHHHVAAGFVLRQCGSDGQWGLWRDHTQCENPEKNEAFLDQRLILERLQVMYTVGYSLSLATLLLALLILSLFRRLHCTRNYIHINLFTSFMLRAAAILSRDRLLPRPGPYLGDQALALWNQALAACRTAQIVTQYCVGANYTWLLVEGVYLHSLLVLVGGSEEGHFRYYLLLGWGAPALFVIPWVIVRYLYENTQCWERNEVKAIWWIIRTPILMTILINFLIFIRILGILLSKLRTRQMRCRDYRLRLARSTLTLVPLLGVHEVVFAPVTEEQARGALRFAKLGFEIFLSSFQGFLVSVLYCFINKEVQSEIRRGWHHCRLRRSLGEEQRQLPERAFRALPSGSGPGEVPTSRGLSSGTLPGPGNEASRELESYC
T5 sequence (P08912 whole entry): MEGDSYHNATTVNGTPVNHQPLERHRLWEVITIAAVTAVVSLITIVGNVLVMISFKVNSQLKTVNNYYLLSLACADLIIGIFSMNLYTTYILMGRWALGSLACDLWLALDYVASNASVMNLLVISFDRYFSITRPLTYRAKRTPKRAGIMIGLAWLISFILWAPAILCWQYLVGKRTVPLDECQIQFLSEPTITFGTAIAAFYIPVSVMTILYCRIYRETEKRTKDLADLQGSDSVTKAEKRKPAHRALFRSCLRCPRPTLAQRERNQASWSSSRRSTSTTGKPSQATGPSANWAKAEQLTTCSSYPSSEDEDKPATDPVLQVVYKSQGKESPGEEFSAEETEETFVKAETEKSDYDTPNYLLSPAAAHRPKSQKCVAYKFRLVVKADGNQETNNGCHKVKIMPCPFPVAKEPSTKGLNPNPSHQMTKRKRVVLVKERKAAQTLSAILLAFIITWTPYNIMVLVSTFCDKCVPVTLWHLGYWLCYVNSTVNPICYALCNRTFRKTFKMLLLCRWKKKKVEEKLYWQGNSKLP
T4 sequence (P11802 whole entry): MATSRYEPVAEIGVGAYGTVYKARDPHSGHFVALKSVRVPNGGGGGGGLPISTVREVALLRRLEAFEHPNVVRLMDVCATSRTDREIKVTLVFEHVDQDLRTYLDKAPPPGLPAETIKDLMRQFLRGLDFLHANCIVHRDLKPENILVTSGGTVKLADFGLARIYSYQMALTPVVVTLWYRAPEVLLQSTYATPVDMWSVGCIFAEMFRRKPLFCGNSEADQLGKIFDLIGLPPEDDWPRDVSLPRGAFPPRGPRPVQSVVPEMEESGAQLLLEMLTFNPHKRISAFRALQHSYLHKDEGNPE
T4 sequence (P30281 whole entry partner): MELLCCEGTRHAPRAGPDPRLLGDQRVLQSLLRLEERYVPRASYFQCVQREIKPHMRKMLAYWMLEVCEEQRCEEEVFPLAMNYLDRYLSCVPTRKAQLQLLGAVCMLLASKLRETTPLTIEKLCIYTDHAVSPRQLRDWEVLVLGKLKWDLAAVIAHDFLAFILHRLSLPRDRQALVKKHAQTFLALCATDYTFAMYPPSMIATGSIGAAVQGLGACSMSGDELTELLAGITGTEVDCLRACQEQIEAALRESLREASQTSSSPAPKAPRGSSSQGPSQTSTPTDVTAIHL
T11 sequence (P06241 whole entry): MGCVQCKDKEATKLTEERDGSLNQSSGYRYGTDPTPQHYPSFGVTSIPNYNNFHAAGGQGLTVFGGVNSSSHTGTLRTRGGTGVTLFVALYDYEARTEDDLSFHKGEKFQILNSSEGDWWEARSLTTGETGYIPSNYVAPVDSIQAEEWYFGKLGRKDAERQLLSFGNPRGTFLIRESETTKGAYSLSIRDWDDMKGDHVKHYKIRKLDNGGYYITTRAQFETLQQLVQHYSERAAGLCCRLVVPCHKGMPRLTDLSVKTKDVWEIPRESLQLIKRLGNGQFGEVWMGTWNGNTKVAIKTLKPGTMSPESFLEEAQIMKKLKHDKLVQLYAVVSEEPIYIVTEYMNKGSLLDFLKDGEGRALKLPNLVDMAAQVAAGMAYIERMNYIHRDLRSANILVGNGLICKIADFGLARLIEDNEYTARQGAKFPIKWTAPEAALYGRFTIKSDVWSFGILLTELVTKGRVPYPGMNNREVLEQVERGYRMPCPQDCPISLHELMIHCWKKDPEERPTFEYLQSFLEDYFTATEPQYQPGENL
T13 sequence (P41743 whole entry): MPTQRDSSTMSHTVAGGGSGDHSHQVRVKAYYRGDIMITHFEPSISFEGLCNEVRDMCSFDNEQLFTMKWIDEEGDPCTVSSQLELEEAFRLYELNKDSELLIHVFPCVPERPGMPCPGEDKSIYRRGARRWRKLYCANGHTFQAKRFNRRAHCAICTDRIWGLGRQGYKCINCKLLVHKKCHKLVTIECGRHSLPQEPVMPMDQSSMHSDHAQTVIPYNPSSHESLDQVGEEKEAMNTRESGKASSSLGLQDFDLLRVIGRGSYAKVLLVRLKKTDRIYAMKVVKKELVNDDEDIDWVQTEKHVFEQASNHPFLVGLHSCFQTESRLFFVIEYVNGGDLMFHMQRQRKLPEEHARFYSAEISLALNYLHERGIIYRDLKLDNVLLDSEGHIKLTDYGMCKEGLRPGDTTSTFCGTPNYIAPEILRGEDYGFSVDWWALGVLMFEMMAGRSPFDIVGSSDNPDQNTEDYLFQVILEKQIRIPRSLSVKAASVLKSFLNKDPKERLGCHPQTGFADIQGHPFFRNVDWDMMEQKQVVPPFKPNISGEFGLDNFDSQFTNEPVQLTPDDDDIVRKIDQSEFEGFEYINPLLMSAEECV
T7 sequence (Q9UBE8 whole entry): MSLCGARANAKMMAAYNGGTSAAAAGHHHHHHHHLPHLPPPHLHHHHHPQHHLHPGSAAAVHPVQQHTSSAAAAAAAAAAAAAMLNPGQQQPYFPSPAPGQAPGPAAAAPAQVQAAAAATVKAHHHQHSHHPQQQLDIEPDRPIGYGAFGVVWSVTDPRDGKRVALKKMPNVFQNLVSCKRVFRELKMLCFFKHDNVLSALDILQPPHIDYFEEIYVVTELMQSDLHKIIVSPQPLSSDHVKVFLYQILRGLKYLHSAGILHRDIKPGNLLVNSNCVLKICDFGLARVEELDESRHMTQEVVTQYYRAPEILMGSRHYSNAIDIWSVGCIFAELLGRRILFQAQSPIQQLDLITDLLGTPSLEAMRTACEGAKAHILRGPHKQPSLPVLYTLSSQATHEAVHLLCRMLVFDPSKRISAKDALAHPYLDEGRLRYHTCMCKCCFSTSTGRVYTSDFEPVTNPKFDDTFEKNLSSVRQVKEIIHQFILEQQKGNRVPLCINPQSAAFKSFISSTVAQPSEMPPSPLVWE

Consider `CCc1ccc2c(c1)C1(NN=C(c3cccc4ccccc34)S1)C(=O)N2` (stereo not drawn) [OGM1, 5-ethyl-5′-naphthalen-1-ylspiro[1H-indole-3,2′-3H-1,3,4-thiadiazole]-2-one], for which the Antagonism was −16.2 at LPA5 (10 uM); 3.4 on M5 (10 uM); −1.6 on ETB (10 uM); −11.7 on DP (10 uM); 12.3 on V1A (10 uM); 0.2 at GIP (10 uM). Moreover, the Agonism on LPA5 (12.5 uM) was −0.1; at M5 (12.5 uM), −0.6; on ETB (12.5 uM), 9.1; at DP (12.5 uM) it was 0.8; at V1A (12.5 uM) it was 0.1; on GIP (12.5 uM), 1.5. The remaining binding at 10 µM on PIPSK1A came to 100%; on TESK1, 100%; at CDK4-cyclinD3, 76%; at TGFBR2, 100%; at NLK, 100%; at TRKA it was 81%. The remaining binding at 10 µM stood at 84% on ERBB3; 91% on PHKG1; 100% at FYN; 100% on MAP4K3; 94% at PRKCI; 100% at FGFR2. Moreover, the remaining binding at 10 µM at CDK9 is 98%; at GAK it was 64%; at ROS1 it was 100%; on LTK, 100%.
`CCc1ccc2c(c1)C1(NN=C(c3ccccc3)S1)C(=O)N2` (stereo not drawn) [OGM2]: the results for the Class result in the experiment on RWGT2 and in the experiment with T-47D were “Very Sensitive (Very Sensitive (LC50<2 μM))” and “Mildly”, respectively. For the same compound, the “% Survival 2 μM OGM” value in the experiment with RWGT2 (72 hours) came out at 39.9%; in the experiment on T-47D (72 hours), 76.4%. Further, the “% Survival 10 μM OGM” value with RWGT2 (72 hours) is 37.1%; with T-47D (72 hours), 61.7%. For the same compound, the CC50 with RWGT2 (Homo sapiens, 72 hours, read-out: LC50 (the source's name)) was less than 2 µM; in the experiment with T-47D (Homo sapiens, T47D, 72 hours, read-out: LC50 (the source's name)), more than 10 µM.

Values taken from US20240327364A1, “THERAPEUTIC TARGETING OF GPR68 TO INDUCE FERROPTOSIS” (University Of Maryland, Baltimore, priority 2023, published 2024).
